Like-named read-outs stand apart in the source and are kept apart here.
Columns and labels:
[1] = target: T1, tryptophan 2,3-dioxygenase (TDO) (Homo sapiens, UniProt P48775); assay: Universal IDO1/IDO2/TDO Inhibitor Screening Assay Kit, TDO; assay type: biochemical; conditions: for inhibition at 100 µg/mL: read-out: Inhibition (%) TDO
T1 construct: purchased BPS Bioscience, Inc. (San Diego, CA, USA)
Protocol: This colorimetric assay is based on the measurement of the ability of IDO1, IDO2 and TDO to convert L-tryptophan into N-formylkynurenine (NFK). The experiments were performed according to the manufacturer’s guidelines. The final concentration of the compounds and extracts in the reaction mixture was 100 µg/mL. The amount of NFK was measured spectrophotometrically at 320 nm using an Epoch BioTek microplate reader (BioTek Instruments, Inc., Winooski, VT, USA). The samples were run in triplicate and the results were expressed as mean ± SEM.

[2] = CUPRAC assay; conditions: concentration giving absorbance 0.5; highest 250.0 µg/mL for substances, 312.5 µg/mL for extracts; ± SEM, n = 3
[3] = target: T2, glutathione reductase (GR) (Saccharomyces cerevisiae, UniProt P41921); assay: Effect on glutathione reductase activity; assay type: biochemical; conditions: 444.4 μg/mL in the reaction mixture; as to GR Inhibition under Reaction Conditions (%): key: -: not active
T2 construct: purchased Sigma Aldrich G3664
Protocol: Sample (20 µL, 5 mg/mL of pure DMSO) was mixed with 10 μL of EDTA solution and 12 μL of GSSG solution and incubated for 5 min at 25 °C; 4 μL of NADPH solution and was then added (all reagents were dissolved in […] sodium phosphate buffer, pH 7.6), and the initial absorbance (340 nm) was recorded. The reaction was then started by addition of 2 U glutathione reductase (2 μL, Sigma Aldrich no G3664), 177 μL of […] sodium phosphate buffer, and the absorbance was recorded after 5 min of incubation at 25 °C. Concentrations of reagents in the final mixture ([…]) were as follows: 0.5 mM EDTA, 10 mM GSSG and 10 mM NADPH. Blank sample was prepared with buffer instead of the sample and background was measured (mixture containing studied sample and buffer only). One unit of enzyme activity has been defined as nMol of NADPH consumed/min·mL sample, in comparison with nMol of NADPH consumed/min in blank (reagent) sample [75].

[4] = tested on: Superoxide dismutase (SOD); assay: Effect on superoxide dismutase activity; assay type: biochemical; conditions: 537.6 μg/mL reaction mixture, ± SEM, n = 3
Protocol: Sample (50 µL, 5 mg/mL of pure DMSO) was mixed with 10 μL SOD (0.24 U), 160 μL nitrobluetatrazolium solution (0.0025 M), 205 μLphosphate buffer (0.2 M, pH 7.5), 30 μL xanthine (150 mM in 1 M NaOH) and 0.01 mL xanthine oxidase (0.065 U, Sigma Aldrich X4875). The change in the absorbance at 550 nm was measured in tested samples vs. controls without the studied sample after […] of incubation and the effect on the enzyme was calculated using the equation [74]: (3) Inhibition [%]=100 – 100×(Abs. 30 min – Abs. 0 min)/(Abs. control. 30 min – Abs. control 0 min)

[5] = target: BChE (Homo sapiens, UniProt P06276); assay type: biochemical; conditions: sample 142.9 μg/mL in the reaction mixture
Protocol: (§1) Ellman’s colorimetric method was used with modifications described previously. Tested sample (10 μL) at concentration 5 mg/mL was mixed with 20 μL of AChE (or BChE) solution (0.28 U/mL) and completed after 5 min with 35 μL of ATChI (or BTCh) (1.5 mmol/L), 175 μL of 0.3 mmol/L DTNB (containing 10 mmol/L NaCl and 2 mmol/L MgCl2) and 110 μL with Tris-HCl buffer (50 mmol/L, pH 8.0). Samples containing 10 μL of Tris-HCl buffer instead of the studied sample were run in the same way (“blank” samples). The increase in the absorbance due to the spontaneous hydrolysis of the substrate was monitored using “blank” samples containing ATCh (or BTCh) and DTNB completed to 350 μL with Tris-HCl buffer. All samples were incubated at 22 °C (30 min; incubation time was determined after optimization experiments, details not shown), and the absorbance was measured (405 nm, 96-well microplate reader, Tecan Sunrise, Grödig, Austria). The “false-positive” effect of studied compounds was measured according to Rhee et al. with minor modifications, as described previously: after mixing of the substrate with the enzyme and buffer, the “false-positive” sample was left for incubation. Then, a studied sample and DTNB were added, followed by an immediate measurement of the absorbance.
(§2) Reference cholinesterase inhibitors were used for the calculations of results (eserine, neostigmine, magniflorine, rivastigmine and donepezil). For this purpose, for each compound, 16 dilutions in pure DMSO were prepared (2.57–41.14 μg/mL). These solutions (10 μL) were tested as described above and calibration curves were produced.
(§3) Each sample was analyzed in at least eight repeats, and all solutions used in a set of analyses were prepared in the same buffer. For calculations, the background of the sample (10 μL mixed with 340 μL of Tris buffer) was measured at 405 nm and subtracted during calculations. Then, the absorbance of the test sample was subtracted from the absorbance of the “blank” sample.

[6] = target: AChE (Homo sapiens, UniProt P22303); assay type: biochemical; conditions: sample 142.9 μg/mL in the reaction mixture; also: key: -: not active
Protocol: as §1, §2, §3

Chain of AChE (P22303 32-614): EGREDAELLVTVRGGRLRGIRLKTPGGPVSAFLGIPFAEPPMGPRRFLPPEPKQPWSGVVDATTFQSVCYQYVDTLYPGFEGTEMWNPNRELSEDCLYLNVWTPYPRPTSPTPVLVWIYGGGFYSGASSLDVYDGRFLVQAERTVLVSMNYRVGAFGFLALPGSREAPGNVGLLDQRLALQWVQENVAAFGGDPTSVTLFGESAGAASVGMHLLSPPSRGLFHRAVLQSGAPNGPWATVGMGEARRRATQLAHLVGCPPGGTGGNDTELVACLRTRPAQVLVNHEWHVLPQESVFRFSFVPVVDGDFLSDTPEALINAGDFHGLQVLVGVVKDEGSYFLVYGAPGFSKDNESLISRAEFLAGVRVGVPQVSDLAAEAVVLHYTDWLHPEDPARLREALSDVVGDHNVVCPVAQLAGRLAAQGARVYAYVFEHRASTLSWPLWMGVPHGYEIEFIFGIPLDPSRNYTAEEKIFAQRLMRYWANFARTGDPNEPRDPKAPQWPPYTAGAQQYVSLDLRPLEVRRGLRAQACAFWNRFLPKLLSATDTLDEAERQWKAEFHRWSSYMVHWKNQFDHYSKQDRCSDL
T1 sequence (P48775 whole entry, species assumed): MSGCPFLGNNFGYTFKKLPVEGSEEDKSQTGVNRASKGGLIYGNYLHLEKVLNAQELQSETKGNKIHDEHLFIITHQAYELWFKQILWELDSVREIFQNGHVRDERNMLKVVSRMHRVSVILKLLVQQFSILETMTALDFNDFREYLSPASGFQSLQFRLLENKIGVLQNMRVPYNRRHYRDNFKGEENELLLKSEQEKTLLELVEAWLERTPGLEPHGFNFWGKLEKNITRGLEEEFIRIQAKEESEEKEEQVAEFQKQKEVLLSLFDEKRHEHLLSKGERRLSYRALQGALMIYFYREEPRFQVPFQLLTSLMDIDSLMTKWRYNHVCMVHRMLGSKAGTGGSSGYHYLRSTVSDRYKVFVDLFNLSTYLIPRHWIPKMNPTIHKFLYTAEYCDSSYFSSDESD
T2 sequence (P41921 17-483): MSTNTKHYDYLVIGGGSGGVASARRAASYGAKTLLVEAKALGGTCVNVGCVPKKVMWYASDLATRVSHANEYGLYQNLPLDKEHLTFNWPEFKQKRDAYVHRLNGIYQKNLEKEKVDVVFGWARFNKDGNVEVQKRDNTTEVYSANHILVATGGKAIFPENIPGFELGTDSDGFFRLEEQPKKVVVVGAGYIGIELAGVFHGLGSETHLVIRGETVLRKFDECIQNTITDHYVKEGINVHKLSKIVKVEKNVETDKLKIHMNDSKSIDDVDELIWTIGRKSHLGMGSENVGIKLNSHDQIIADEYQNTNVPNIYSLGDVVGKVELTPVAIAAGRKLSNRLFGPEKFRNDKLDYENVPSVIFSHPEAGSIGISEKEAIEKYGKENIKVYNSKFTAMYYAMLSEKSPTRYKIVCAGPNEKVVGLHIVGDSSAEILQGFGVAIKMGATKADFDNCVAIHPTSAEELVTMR
Chain of BChE (P06276 29-602, species assumed): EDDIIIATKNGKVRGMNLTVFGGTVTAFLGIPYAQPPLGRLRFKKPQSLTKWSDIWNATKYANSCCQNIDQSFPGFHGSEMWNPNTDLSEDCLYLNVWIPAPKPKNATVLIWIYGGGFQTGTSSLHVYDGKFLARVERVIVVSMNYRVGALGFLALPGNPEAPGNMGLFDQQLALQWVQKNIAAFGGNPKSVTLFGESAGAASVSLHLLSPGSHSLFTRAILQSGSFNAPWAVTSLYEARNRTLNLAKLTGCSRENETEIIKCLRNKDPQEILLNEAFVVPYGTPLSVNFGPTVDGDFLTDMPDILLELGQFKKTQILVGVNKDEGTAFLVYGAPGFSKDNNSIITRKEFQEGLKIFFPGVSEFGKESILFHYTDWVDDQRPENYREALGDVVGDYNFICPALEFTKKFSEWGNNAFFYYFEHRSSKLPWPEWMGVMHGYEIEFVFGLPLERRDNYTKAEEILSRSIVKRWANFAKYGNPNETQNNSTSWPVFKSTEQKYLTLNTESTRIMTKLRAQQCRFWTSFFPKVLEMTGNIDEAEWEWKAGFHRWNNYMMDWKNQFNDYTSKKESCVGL

SMILES | inhibition at 100 µg/mL ([1]; 100 µg/mL) [%] | CUPRAC IC0.5 [2] [µg/mL] | GR Inhibition under Reaction Conditions (%) [3] | SOD Inhibition (%) [4] [%] | Equivalent Reference Concentration, Donepezil, BChE [5] [µg/mL] | Equivalent Reference Concentration, Eserine, BChE [5] [µg/mL] | Equivalent Reference Concentration, Magniflorine, BChE [5] [µg/mL] | Equivalent Reference Concentration, Neostygmine, BChE [5] [µg/mL] | Equivalent Reference Concentration, Rivastigmine, BChE [5] [µg/mL] | Equivalent Reference Concentration, Donepezil, AChE [6] | Equivalent Reference Concentration, Eserine, AChE [6] | Equivalent Reference Concentration, Magniflorine, AChE [6] | Equivalent Reference Concentration, Neostygmine, AChE [6] | Equivalent Reference Concentration, Rivastigmine, AChE [6] | also measured
COc1cc(C)c(C(=O)Oc2cc(C)c(C(=O)O)c(O)c2)c(O)c1 [Evernic acid, evernic acid] | < 10 | >250.0 | - | 21.2 ± 0.0 | 9.5 ± 0.0 | 10.9 ± 0.1 | 52.3 ± 0.1 | 16.5 ± 0.2 | 85.9 ± 0.1 | - | - | - | - | - | SOD Inhibition (%) ([4]; listed as evernic acid): ~ 20%
Cc1cc(O)c(C=O)c2c1C(=O)Oc1c(CO)c(O)c3c(c1O2)C(O)OC3=O (stereo not drawn) [Salazinic acid, salazinic acid] | < 10 | >250.0 | - | 19.4 ± 0.3 | 7.9 ± 0.3 | 9.0 ± 0.1 | 43.2 ± 0.2 | 13.6 ± 0.1 | 70.9 ± 0.3 | - | - | - | - | - | Inhibition (%) TDO ([1]; 100 µg/mL): did not exhibit any inhibition effect; SOD Inhibition (%) ([4]; listed as salazinic acid): ~ 20%
CC(=O)C1=C(O)C=C2Oc3c(C(C)=O)c(O)c(C)c(O)c3C2(C)C1=O (single isomer, unassigned; (-)) [(−)-Usnic acid, (−)-usnic acid] |  | >250.0 |  | 19.6 ± 0.6 |  |  |  |  |  | - | - | - | - | - | inhibition at 100 µg/mL [1]: < 10%; GR Inhibitory Activity (nMol Depleted NADPH/min Incubation) [3]: 710.2 ± 42.3 nMol Depleted NADPH/min Incubation; inhibition at 444.4 µg/mL ([3]; read-out: GR Inhibition under Reaction Conditions (%)): 18.2 ± 2.2%; SOD Inhibition (%) ([4]; listed as (−)-usnic acid): ~ 20%
